Test results published in article PMC10720248 (Frontiers in Chemistry, 2023).

System: TLBro
Conditions: pH 8.0, 37°C, 10 mM Tris-HCl, 100 mM NaCl, 10 mM CaCl2

SMILES: N=C(N)NCCCC(NC(=O)c1ccccc1)C(=O)Nc1ccc([N+](=O)[O-])cc1 (racemic) [DL-BAρNA, N-benzoyl-L-arginine-ρ-nitroanilide]
- Km: 850 µM
